Results on eight compounds are retold here after PubChem BioAssay (NCI).

Some test systems named below: BT-549 breast; HT29 colon; IGROV1 ovarian; MDA-MB-435; MOLT-4 leukemia; NCI-H226 lung; NCI-H460 lung; RXF 393 renal; SK-MEL-2 melanoma; TK-10 renal.
Common to all, as to experiment: NCI tumour cell line growth inhibition, 48 h

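Values below derive from 48-hour exposures of cells grown in 96-well plates, with endpoints linearly interpolated between the two concentrations bracketing the appropriate inhibition level. GI50: concentration for 50% inhibition of growth. TGI denotes the concentration required for complete inhibition of growth.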

Regarding `Cc1cc(NC(=O)C(=O)Cc2nc3ccccc3s2)ccc1Cl`, the TGI in the assay on BT-549 breast, in the assay on HT29 colon, in the assay with IGROV1 ovarian, with MDA-MB-435, with MOLT-4 leukemia and in the assay on NCI-H226 lung was > 100 µM each time. Besides, the TGI in the assay with NCI-H460 lung, in the assay on RXF 393 renal, in the assay with SK-MEL-2 melanoma and in the assay with TK-10 renal was > 100 µM in each case.
For `COc1ccc2cc(C(=O)/C=C/c3ccccc3OC)ccc2c1`, the GI50 with BT-549 breast is 4.55 µM; in the assay with HT29 colon, 1.67 µM; in the assay with IGROV1 ovarian, 0.769 µM; in the assay with MDA-MB-435, 0.57 µM; in the assay on MOLT-4 leukemia, 1.26 µM; with NCI-H226 lung it was 3.24 µM. Moreover, the GI50 with RXF 393 renal is 2.54 µM; with SK-MEL-2 melanoma, 10.3 µM; in the assay with TK-10 renal it was 2.89 µM. Besides, the TGI is 24.6 µM in the assay on BT-549 breast; > 45.5 µM in the assay with HT29 colon; 4.06 µM in the assay on IGROV1 ovarian; 5.03 µM in the assay with MDA-MB-435; 9.45 µM in the assay on MOLT-4 leukemia; 18.7 µM in the assay on NCI-H226 lung. Moreover, the TGI in the assay with NCI-H460 lung was > 51.7 µM; with RXF 393 renal, 7.63 µM; with SK-MEL-2 melanoma it was 35.2 µM; in the assay with TK-10 renal, > 40.1 µM.
Turning to `COc1ccc2c(c1)CC[C@@H]1[C@@H]2CC[C@]2(C)c3c(cc(C(=O)c4ccccc4)c4sccc34)C[C@@H]12`, the GI50 with BT-549 breast, in the assay on HT29 colon, in the assay on IGROV1 ovarian, in the assay on MDA-MB-435, in the assay on MOLT-4 leukemia and with NCI-H226 lung was > 100 µM in each case. Also, the GI50 in the assay with NCI-H460 lung, in the assay on RXF 393 renal, with SK-MEL-2 melanoma and in the assay on TK-10 renal was > 100 µM each time. The TGI in the assay on BT-549 breast, with HT29 colon, in the assay on IGROV1 ovarian, in the assay with MDA-MB-435, with MOLT-4 leukemia and in the assay on NCI-H226 lung was > 100 µM throughout. In addition, the TGI with NCI-H460 lung, in the assay on RXF 393 renal, in the assay with SK-MEL-2 melanoma and with TK-10 renal was > 100 µM each time.
For `CSc1ccc2c(c1)C(=O)c1c-2n(CCCN=[N+]=[N-])c(=O)c2cc([N+](=O)[O-])ccc12`, the TGI in the assay with BT-549 breast is > 100 µM; in the assay with HT29 colon, > 100 µM; in the assay with IGROV1 ovarian it was > 100 µM; with MDA-MB-435, > 100 µM; in the assay with MOLT-4 leukemia, 6.38 µM; in the assay on NCI-H226 lung, > 100 µM. Further, the TGI in the assay on NCI-H460 lung, with RXF 393 renal, in the assay with SK-MEL-2 melanoma and with TK-10 renal was > 100 µM each time. Also, the GI50 was 4.3 µM with HT29 colon; 8.86 µM in the assay with IGROV1 ovarian; 14.1 µM in the assay on MDA-MB-435; 0.371 µM in the assay with MOLT-4 leukemia; 8.74 µM in the assay on NCI-H226 lung; 0.322 µM with NCI-H460 lung. In addition, the GI50 in the assay on RXF 393 renal was > 34.4 µM; in the assay with SK-MEL-2 melanoma, 66.7 µM; in the assay on TK-10 renal it was > 100 µM.
`O=S(=O)(c1ccccc1)C1CN(Cc2ccccc2)CCN(Cc2ccccc2)C1`: the TGI in the assay with BT-549 breast is > 100 µM; in the assay with HT29 colon, > 100 µM; with IGROV1 ovarian, > 100 µM; in the assay with MDA-MB-435 it was 86.6 µM; in the assay with MOLT-4 leukemia, > 100 µM; in the assay on NCI-H226 lung, > 100 µM. The TGI in the assay on NCI-H460 lung is > 100 µM; in the assay on RXF 393 renal, 43.3 µM; in the assay with SK-MEL-2 melanoma, > 100 µM; in the assay with TK-10 renal it was > 100 µM.
Consider `NNc1nc(-c2ccccn2)nc2sc3c(c12)CCCCCC3`, for which the GI50 is 9.73 µM with BT-549 breast; 5.53 µM in the assay with HT29 colon; 4.21 µM in the assay on IGROV1 ovarian; 5.17 µM in the assay with MDA-MB-435; 3.67 µM in the assay with MOLT-4 leukemia; 10.3 µM with NCI-H226 lung. Besides, the GI50 with NCI-H460 lung was 4.22 µM; in the assay on RXF 393 renal, 6.8 µM; in the assay on SK-MEL-2 melanoma, 14.4 µM; in the assay with TK-10 renal it was 9.16 µM. The TGI is > 100 µM with BT-549 breast; > 100 µM in the assay with HT29 colon; > 100 µM with IGROV1 ovarian; > 100 µM in the assay with MDA-MB-435; 22.7 µM with MOLT-4 leukemia; 89.1 µM with NCI-H226 lung. Besides, the TGI in the assay with NCI-H460 lung is 57.5 µM; with RXF 393 renal, 43 µM; in the assay on SK-MEL-2 melanoma, > 100 µM; with TK-10 renal, > 100 µM.
For `N=C1N=Nc2nc(C3(c4nc5n(c4O)C(=N)N=N5)Cc4ccccc4C3=O)c(O)n21` (stereo unspecified), the GI50 in the assay on BT-549 breast is > 100 µM; with IGROV1 ovarian, 63.7 µM; with SK-MEL-2 melanoma, > 100 µM. In addition, the TGI in the assay on BT-549 breast, with HT29 colon, in the assay with IGROV1 ovarian, in the assay on MDA-MB-435, in the assay on MOLT-4 leukemia and in the assay with NCI-H226 lung was > 100 µM throughout. Besides, the TGI with NCI-H460 lung, in the assay with RXF 393 renal, with SK-MEL-2 melanoma and in the assay with TK-10 renal was > 100 µM in each case.
For the compound `COc1cc2c(cc1C)NC(=O)/C2=C/c1c(C)nc2sc(C)cn12`, the GI50 is 40.4 µM in the assay on BT-549 breast; > 100 µM in the assay with HT29 colon; 26.8 µM in the assay with IGROV1 ovarian; 32.4 µM with MDA-MB-435; 34.4 µM in the assay with MOLT-4 leukemia; 82.8 µM in the assay with NCI-H226 lung. The GI50 with NCI-H460 lung is 45.7 µM; in the assay on RXF 393 renal, > 100 µM; with SK-MEL-2 melanoma it was > 100 µM; in the assay with TK-10 renal, 68 µM. The TGI in the assay with BT-549 breast, in the assay with HT29 colon, in the assay on IGROV1 ovarian, with MDA-MB-435, in the assay with MOLT-4 leukemia and in the assay on NCI-H226 lung was > 100 µM throughout. For the same compound, the TGI in the assay on NCI-H460 lung, in the assay on RXF 393 renal, with SK-MEL-2 melanoma and with TK-10 renal was > 100 µM each time.
